# According to patent US20160008471A1, “TRANSDERMAL FORMULATIONS” (priority 2013, published 2016):
# Counter-ions that a name gives are not always drawn. Like-named read-outs stand apart in the source and are kept apart here.
# Columns and labels:
# [1] = at RT; cited from earlier work
# [2] = cited from earlier work; for pKa (acidic): first pKa (acidic) column; for Solubility (Aq): in words
# [3] = male, bovine, pH 7.4
# [4] = rabbit
# [5] = horse
# [6] = Moxidectin skin deposition study; format: in vitro ADME, bovine; settings: 72 hours
# Method: The amount of moxidectin accumulating in the bovine skin was determined using whole skin thickness (approx. […]) and split skin thickness (approx. […]) after 72 hours. The skin tissue was physically broken down using a Gentle MACS dissociator (Miltenyi Biotec GmbH, Germany) with 5 mL of methanol added into each sample. The dissociator setting was RNA-02.01 with M-type tubes for 90 seconds. Centrifuged samples had the supernatant collected and diluted 2 times with ACN before being analysed by the HPLC method.
# [7] = Stability of test composition with surfactants (phase separation, crystals); format: physicochemical; settings: surfactant added to test composition (Table 5); room temperature (24±1° C.)
# Method: The purpose of this study was to examine the stability of the formula which may comprise surface active agents such as surfactants. […] Three temperatures (RT, 4.5° C. and −20° C.) were used to monitor for phase separation and/or drug crystal formation every one or two days from 6 days.
# [8] = Solubility of actives in individual solvents
# Description: The purpose of these studies was to identify solvents and co-solvents to optimise solubility of actives and the physical/chemical stability of product.
compound,measurement,setting,value
"CCCCCCCC/C=C\CCCCCCCCOCCOCCO [Brij 93, polyoxyethylene (2) oleyl ether]",HLB,[1],4.5 ± 0.4
"C[C@]12CCC(=O)C=C1CC[C@@H]1[C@@H]2[C@@H](O)C[C@@]2(C)[C@H]1CC[C@]2(O)C(=O)CO [Hydrocortisone, Hydrocortisone (base)]",pKa (basic),[2],−2.8
same,pKa (acidic),[2],12.6
"c1ccc([C@H]2CN3CCSC3=N2)cc1 [Lev. Base, levamisole base]",flux rate of levamisole,[3]; 72 h,949.6±80.8 μg/cm^2/hr
same,logP,[2],1.8
same,pKa (acidic),[2],8
same,Solubility (Aq),[2],Insoluble
same,pKa,[2]; stated for the basic drug LEV,8
"CCN(CC)CCNC(=O)c1cc(Cl)c(N)cc1OC [Metoclopramide, Metacloprimide HCl]",Mean (μg/cm2) permeated,[3]; 0 h,0 μg/cm2
same,Mean (μg/cm2) permeated,[3]; 2 h,16.2 μg/cm2
same,Mean (μg/cm2) permeated,[3]; 4 h,251 μg/cm2
same,Mean (μg/cm2) permeated,[3]; 6 h,456 μg/cm2
same,Mean (μg/cm2) permeated,[3]; 8 h,960 μg/cm2
same,Mean (μg/cm2) permeated,[3]; 20 h,2188 μg/cm2
same,Mean (μg/cm2) permeated,[3]; 24 h,2252 μg/cm2
same,Mean (μg/cm2) permeated,[3]; 26 h,2718 μg/cm2
same,Mean (μg/cm2) permeated,[3]; 44 h,4779 μg/cm2
same,Mean (μg/cm2) permeated,[3]; 48 h,5169 μg/cm2
same,Mean (μg/cm2) permeated,[3]; 52 h,5394 μg/cm2
same,Flux,[3]; 58 h,109.4±11.8 μg/cm^2/hr
same,Mean (μg/cm2) permeated,[3]; 68 h,5336 μg/cm2
same,Mean (μg/cm2) permeated,[3]; 70 h,5613 μg/cm2
same,APC,[3]; 72 h,97.1 cm/s × 10^−8
same,Extent 72 h,[3]; 72 h,5346 μg/cm^2
same,Flux,[3]; 72 h,109 μg/cm^2/hr
same,Mean (μg/cm2) permeated,[3]; 72 h,5346 μg/cm2
same,lag T,[3],1.07 h
same,Flux,[4],38.6±9.2 μg/cm^2/hr
same,lag T,[4],4.84 h
same,Mean (μg/cm2) permeated,[4]; 0 h,0 μg/cm2
same,Mean (μg/cm2) permeated,[4]; 2 h,0 μg/cm2
same,Mean (μg/cm2) permeated,[4]; 4 h,0 μg/cm2
same,Mean (μg/cm2) permeated,[4]; 6 h,0 μg/cm2
same,Mean (μg/cm2) permeated,[4]; 8 h,0 μg/cm2
same,Mean (μg/cm2) permeated,[4]; 10 h,32.3 μg/cm2
same,Mean (μg/cm2) permeated,[4]; 20 h,685 μg/cm2
same,Mean (μg/cm2) permeated,[4]; 24 h,772 μg/cm2
same,Mean (μg/cm2) permeated,[4]; 26 h,831 μg/cm2
same,Mean (μg/cm2) permeated,[4]; 28 h,925 μg/cm2
same,Mean (μg/cm2) permeated,[4]; 44 h,1537 μg/cm2
same,Mean (μg/cm2) permeated,[4]; 46 h,1612 μg/cm2
same,Mean (μg/cm2) permeated,[4]; 48 h,1567 μg/cm2
same,Mean (μg/cm2) permeated,[4]; 50 h,1782 μg/cm2
same,Mean (μg/cm2) permeated,[4]; 52 h,1968 μg/cm2
same,Mean (μg/cm2) permeated,[4]; 68 h,2391 μg/cm2
same,Mean (μg/cm2) permeated,[4]; 70 h,2387 μg/cm2
same,APC,[4]; 72 h,45.7 cm/s × 10^−8
same,Extent 72 h,[4]; 72 h,2515 μg/cm^2
same,Flux,[4]; 72 h,38.6 μg/cm^2/hr
same,Mean (μg/cm2) permeated,[4]; 72 h,2515 μg/cm2
same,lag T,[5],3.11 h
same,Mean (μg/cm2) permeated,[5]; 0 h,0 μg/cm2
same,Mean (μg/cm2) permeated,[5]; 2 h,0 μg/cm2
same,Mean (μg/cm2) permeated,[5]; 4 h,0 μg/cm2
same,Mean (μg/cm2) permeated,[5]; 6 h,0 μg/cm2
same,Mean (μg/cm2) permeated,[5]; 8 h,68.1 μg/cm2
same,Mean (μg/cm2) permeated,[5]; 10 h,679 μg/cm2
same,Mean (μg/cm2) permeated,[5]; 20 h,1372 μg/cm2
same,Flux,[5]; 24 h,67.0±24.6 μg/cm^2/hr
same,Mean (μg/cm2) permeated,[5]; 24 h,1533 μg/cm2
same,Mean (μg/cm2) permeated,[5]; 26 h,1477 μg/cm2
same,Mean (μg/cm2) permeated,[5]; 28 h,1640 μg/cm2
same,Mean (μg/cm2) permeated,[5]; 44 h,2604 μg/cm2
same,Mean (μg/cm2) permeated,[5]; 46 h,2784 μg/cm2
same,Mean (μg/cm2) permeated,[5]; 48 h,2910 μg/cm2
same,Mean (μg/cm2) permeated,[5]; 50 h,2930 μg/cm2
same,Mean (μg/cm2) permeated,[5]; 52 h,3078 μg/cm2
same,Mean (μg/cm2) permeated,[5]; 68 h,3350 μg/cm2
same,Mean (μg/cm2) permeated,[5]; 70 h,3440 μg/cm2
same,APC,[5]; 72 h,62.7 cm/s × 10^−8
same,Extent 72 h,[5]; 72 h,3454 μg/cm^2
same,Flux,[5]; 72 h,67.0 μg/cm^2/hr
same,Mean (μg/cm2) permeated,[5]; 72 h,3454 μg/cm2
"CO/N=C1\C[C@]2(C[C@@H]3C[C@@H](C/C=C(\C)C[C@@H](C)/C=C/C=C4\CO[C@@H]5[C@H](O)C(C)=C[C@@H](C(=O)O3)[C@]45O)O2)O[C@H](/C(C)=C/C(C)C)[C@H]1C [Moxidectin, moxidectin]",proportion of the drug in Donor,[6]; 500 μm skin,51%
same,proportion of the drug in Receptor,[6]; 500 μm skin,31%
same,proportion of the drug in Skin,[6]; 500 μm skin,18%
same,proportion of the drug in Donor,[6]; Whole skin,65%
same,proportion of the drug in Receptor,[6]; Whole skin,3%
same,proportion of the drug in Skin,[6]; Whole skin,32%
same,flux rate of moxidectin,[3]; 72 h,475±185.2 ng/cm^2/hr
same,Solubility (Aq),[2],Insoluble
CCCCCCCC/C=C\CCCCCCCC(=O)OCCOCC(OCCO)C1OCC(OCCO)C1OCCO (stereo not shown) [Tween 80],"Stability of test composition, RT",[7],S
Span 60,HLB,[1],4.7
Span 80,HLB,[1],4.3
Tocopherol,HLB,[1],6.0
abamectin,Maximum Solubility % w/w,[8]; in AGNIQUE AMD 10,At least 1 % w/w
same,Maximum Solubility % w/w,[8]; in AGNIQUE AMD 810,At least 1 % w/w
same,Maximum Solubility % w/w,[8]; in Cremophor,At least 1 % w/w
same,Maximum Solubility % w/w,[8]; in DMSO,At least 1 % w/w
same,Maximum Solubility % w/w,[8]; in Dipropylenglycol dimethylether,At least 1 % w/w
same,Maximum Solubility % w/w,[8]; in Ecoteric T80,At least 1 % w/w
same,Maximum Solubility % w/w,[8]; in Glycerol Formal,19 % w/w
same,Maximum Solubility % w/w,[8]; in Isopropyl Mirystate,At least 1 % w/w
same,Maximum Solubility % w/w,[8]; in Isopropyleneglycol,7 % w/w
same,Maximum Solubility % w/w,[8]; in Isosorbide,At least 1 % w/w
same,Maximum Solubility % w/w,[8]; in PEG400,At least 1 % w/w
same,Maximum Solubility % w/w,[8]; in Polysorbate 20,At least 1 % w/w
same,Maximum Solubility % w/w,[8]; in Span 80,At least 1 % w/w
same,Maximum Solubility % w/w,[8]; in Tetraglycol,8 % w/w
same,Maximum Solubility % w/w,[8]; in Triacetin,3 % w/w
same,Maximum Solubility % w/w,[8]; in Tripropylene glycol methylether (TPGME),8 % w/w
same,logP,[2],4.4
same,Solubility (Aq),[2],Insoluble
